Molecular target: T1, FUCA1 (Homo sapiens, UniProt P04066)
T1 sequence (P04066 32-466): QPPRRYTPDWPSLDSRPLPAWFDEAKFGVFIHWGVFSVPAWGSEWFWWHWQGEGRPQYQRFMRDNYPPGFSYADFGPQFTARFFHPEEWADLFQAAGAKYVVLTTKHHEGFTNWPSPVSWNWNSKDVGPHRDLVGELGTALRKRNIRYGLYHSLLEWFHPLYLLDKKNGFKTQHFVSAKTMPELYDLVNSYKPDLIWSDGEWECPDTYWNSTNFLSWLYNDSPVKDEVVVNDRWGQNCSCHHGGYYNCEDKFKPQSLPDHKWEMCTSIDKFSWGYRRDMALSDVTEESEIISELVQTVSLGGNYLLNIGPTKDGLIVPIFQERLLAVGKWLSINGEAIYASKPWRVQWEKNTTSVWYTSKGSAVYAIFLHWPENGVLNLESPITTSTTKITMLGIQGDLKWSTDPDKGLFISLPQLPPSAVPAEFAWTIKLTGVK
Assay: Fluorescent labeling kinetics, time course on SDS-PAGE
Format: binding
Design: expressed in transfected cells; host or cells: COS-7
Conditions: 10 nM probe, stoichiometric rhFUCA1, 4 °C
Text: This rapid reaction with both 1 and 2 also precluded a classic determination of kinetic constants following a time-dependent decrease in detectable 4-methylumbelliferone (ESI Fig. S5b ^†).
Fig. S4. In vitro pH profile of recombinant FUCA1. A) In vitro labeling of COS-7 cell lysate containing over-expressed human FUCA1 at various pH with ABP 1. B) Relative in vitro labeling of FUCA1 with ABP 1 (closed squares) compared to relative enzymatic activity towards artificial 4-methylumbelliferyl-α-L-fucopyranoside substrate (open circles) at various pH. Data average of n = 3 experiments, ± standard deviation.
Fig. S5. In vitro inhibition kinetics of ABPs 1 and 2 towards recombinant human FUCA1. A) Stoichiometric in situ labeling of COS-7 lysate containing over-expressed human FUCA1 with 10 nM ABP 1 at 4°C and 37°C. B) Plots of Kobserved against the concentration of ABP 1 and 2. Rates determined through direct kinetic measurements of liberated 4-methylumbelliferone from 4-methylumbelliferyl-α-L-fucopyranoside substrate whilst in the presence of varying concentrations of ABP 1 and 2. […]

completeness of labeling over time: near complete within the first minute
Structure (SMILES): CC1=CC(C)=[N+]2C1=C(CCCCc1cn(CCCCCCCC(=O)N3[C@@H]4[C@@H](C)[C@@H](O)[C@@H](O)[C@H](O)[C@@H]43)nn1)c1c(C)cc(C)n1[B-]2(F)F [compound 1]

From paper PMC5654414, “In vitro and in vivo comparative and competitive activity-based protein profiling of GH29 α-L-fucosidases” (Chemical Science, 2015)
